Laboratory results taken from patent US20040120938A1, “Ingestible compositions comprising antibacterial agents” (The University of Bath, priority 1998, published 2004).
Like-named read-outs stand apart in the source and are kept apart here.

What was measured:
[1] = test system: nitric oxide (NO) release; test: NO release from formula feeds with nitrite and NADH (Test 7); type: biochemical; settings: inhibitor 100 μM
Method: (§1) The production of nitric oxide in the following tests and examples was analysed using an ozone chemiluminescence assay in a continuous flow apparatus (Sievers NOA 280) that allows the real time analysis of NO production. The apparatus was modified to allow a constant stream of nitrogen to flow into the reaction chamber. Chemiluminescence data were collected by a data acquisition system; the mean NO produced in parts per billion (ppb) was calculated from readings taken every second and shown as ppb or mV.
(§2) Progress curves, of molar production of NO against time, were calculated by taking into account the gas flow and the mean level of NO. Molar production of NO was expressed as ppb/sec or mV/sec. Reactions were carried out in a final volume of 1 ml at 37° C. in an atmosphere of <1% oxygen (Stathkelvin combination needle oxygen electrode, Diamond General Corp.).
(§3) To the “substrates” bijou, 200 μl of 100 mM stock sodium nitrite was added together with 200 μl of the 5 mM reduced NADH to give an assay concentration of 20 mM nitrite and 1 mM reduced NADH.
(§4) To the “milk” bijou were added 600 μl of milk sample to give an assay volume of 1 ml.
(f) At t=5 minutes, the contents of the “milk” bijou were injected into the reaction cell using a 1 ml syringe and the release of NO was monitored for a further 20 minutes. […]

[2] = molecular target: T1, bovine xanthine oxidase (XOR) (Bos taurus, UniProt P80457); test: NO release by XOR with known XOR inhibitors (Test 4); type: biochemical; settings: inhibitor 100 μM in the XOR/nitrite/NADH assay of Test 1
T1 construct: purchased Biozyme, Blaenavon, UK batch 104AX
T1 sequence (P80457 whole entry): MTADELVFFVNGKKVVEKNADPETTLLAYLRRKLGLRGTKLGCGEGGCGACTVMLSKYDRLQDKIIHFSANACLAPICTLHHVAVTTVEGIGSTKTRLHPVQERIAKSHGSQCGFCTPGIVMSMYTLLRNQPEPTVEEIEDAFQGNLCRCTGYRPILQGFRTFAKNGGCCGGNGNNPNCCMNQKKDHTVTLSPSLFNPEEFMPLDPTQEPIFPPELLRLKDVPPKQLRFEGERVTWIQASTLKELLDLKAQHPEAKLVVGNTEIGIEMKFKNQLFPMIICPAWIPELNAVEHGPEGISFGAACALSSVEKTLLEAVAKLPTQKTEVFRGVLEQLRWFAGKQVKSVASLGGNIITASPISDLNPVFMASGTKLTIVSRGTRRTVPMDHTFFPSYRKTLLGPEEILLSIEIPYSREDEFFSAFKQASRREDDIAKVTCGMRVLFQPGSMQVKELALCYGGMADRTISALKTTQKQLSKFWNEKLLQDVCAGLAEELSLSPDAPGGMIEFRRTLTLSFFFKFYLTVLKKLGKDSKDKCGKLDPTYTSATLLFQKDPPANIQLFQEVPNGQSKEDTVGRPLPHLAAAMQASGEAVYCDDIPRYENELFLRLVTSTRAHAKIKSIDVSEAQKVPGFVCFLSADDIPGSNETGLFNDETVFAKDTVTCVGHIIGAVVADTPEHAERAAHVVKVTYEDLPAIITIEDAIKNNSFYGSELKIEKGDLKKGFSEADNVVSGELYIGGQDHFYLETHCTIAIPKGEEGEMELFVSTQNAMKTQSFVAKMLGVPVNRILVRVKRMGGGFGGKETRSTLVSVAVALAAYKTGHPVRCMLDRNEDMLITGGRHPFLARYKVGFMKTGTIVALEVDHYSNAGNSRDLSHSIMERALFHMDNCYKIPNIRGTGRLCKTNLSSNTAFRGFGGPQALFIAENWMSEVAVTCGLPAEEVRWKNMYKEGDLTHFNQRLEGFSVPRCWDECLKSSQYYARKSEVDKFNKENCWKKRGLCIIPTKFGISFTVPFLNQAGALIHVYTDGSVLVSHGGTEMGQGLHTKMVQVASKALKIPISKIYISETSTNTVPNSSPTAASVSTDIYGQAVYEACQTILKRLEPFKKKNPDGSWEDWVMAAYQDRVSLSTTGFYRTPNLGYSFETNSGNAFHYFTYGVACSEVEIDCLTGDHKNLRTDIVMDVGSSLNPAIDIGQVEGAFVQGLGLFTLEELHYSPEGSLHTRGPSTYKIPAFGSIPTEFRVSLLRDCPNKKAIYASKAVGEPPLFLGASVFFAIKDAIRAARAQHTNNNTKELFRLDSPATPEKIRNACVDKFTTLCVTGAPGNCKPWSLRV
Method: Bovine xanthine oxidase was diluted with PBS as indicated in Table 1 below to give 300 μl of enzyme mixture. The enzyme mixture (300 μl) was mixed with 700 μl of a substrate mixture to give an assay volume of 1 ml. The substrate mixture comprised nitrite which was added to the assay to give a concentration of 1 mM and NADH which was added to give a concentration of 0.3 mM. Where, for example in Tests 2 to 4 below, additional components are added to the sample, the amount of PBS is adjusted accordingly to give an assay volume of 1 ml. The sample was placed in the reaction vessel of the NO determination apparatus under a nitrogen atmosphere and the generation of NO was measured and the results calculated as a steady state rate in mV/s. […] Two different inhibitors were used. Oxypurinol was used at a concentration of 100 μM. Oxypurinol is a molybdenum site-specific inhibitor. Diphenyliodonium (DPI) was used at a concentration of 100 μM. DPI is a FAD site inhibitor.

[3] = test system: nitric oxide (NO) release; test: NO release from full fat milk with nitrite and NADH under hypoxia (Test 5); type: biochemical; settings: inhibitor 100 μM; for inhibition of the increased NO release of milk gone off at 4° C.: milk kept at 4° C. more than 3 days
Method: as §1, §2, §3, §4
(f) At t=5 minutes, the contents of the “milk” bijou were injected into the reaction cell using a 1 ml syringe and the release of NO was monitored for a further 20 minutes. The set up was such that the reaction cell was a sealed system having an inlet gas flow of 200 ml/min and a sample extraction flow to the NOA-280 of 200 ml/min. The steady-state generation of NO (which corresponded to a plateau region on the trace of the NO production) was noted to give the mV/s release of NO from the 1 ml assay volume.
Full fat milk was assayed with 20 mM nitrite and 1 mM NADH as described above in Test 1. […] 600 μl of milk was used in each test giving a protein content in each assay of 20.4 mg.
The milk was taken and divided into two halves. One was kept at 4° C., and the other at −20° C. Samples of the milk were taken over several days and the generation of NO was investigated using the method described above.

Micrococcus sp = settings: read-out: Half maximal concentration H2O2, bolus at beginning of logarithmic growth
Method: (§5) Bacteria were seeded into nutrient broth (NB) and grown over night at 37° C. The culture was then counted and normalised to give a final cell concentration of 1.8×10^7 cells well^−1 into the wells of a 96 well plate in fresh nutrient broth. The optical density of each well was monitored every 15 minutes as a measure of the growth rate of each bacterial species. Growth curves were generated for each species and the maximal rate of growth (logarithmic phase) was measured. Cells were treated to a range of experimental conditions in which the growth rate of cells was related to a control of untreated cells. The results were expressed as a percentage of the growth rate of the control cells.
(§6) (iv) The effect of XO hypoxanthine addition was measured on the growth rate of a range of bacterial species with 30 […] XO at varying hypoxanthine concentrations using cells seeded as described above.

Bacillus sp = settings: read-out: Half maximal concentration H2O2, bolus at beginning of logarithmic growth
Method: as §5, §6

Lactobacillus casei 6375 = test: Bacterial growth rate by optical density, 96 well plate (Tests 8(f), 8(g)); type: cell-based
Method: as §5
(§7) (i) At a fixed concentration of hypoxanthine (100 μM) a range of purified XO protein concentrations were added at time 0 minutes. The optical density was followed and the growth rate calculated.
(§8) (ii) The growth rate was also measured in relation to the concentration of hypoxanthine, using 30 μg of XO with cells seeded as described above.
as §6

[4] = test system: Staphylococcus aureus 6751; test: as above; type: cell-based
Method: as §5, §7, §8, §6

[5] = test system: bacteria in pasteurised semi skimmed milk; settings: 100 μM in pasteurised semi skimmed milk, 4-8° C., 8 days
Method: Pasteurised semi skimmed milk 1 ml was aliquoted into 7 sterile plastic bijou bottles comprising control and treated hypoxanthine (Hxan) groups. […] The samples were stored refrigerated at 4-8° C. until required on a specific day when a control and treated sample was incubated at 37° C. for 30 minutes. A 100 μl aliquot was taken from each sample and spread onto nutrient agar which was then incubated over night at 37° C. The total number of colonies formed regardless of type was counted and expressed for each treatment as the colony forming units per ml of the original test sample (CFU ml^−1).

Escherichia coli NCTC 86 = test: Peroxynitrite effect on cell viability, viable colony count (Test 8(a)); type: cell-based; settings: E. coli; for IC50: Escherichia coli, NCTC86
Method: To obtain cells used in this test, the infective bacterial strain Escherichia coli NCTC 86 (E. coli) was cultured on nutrient agar at 37° until colony formation occurred, usually overnight. This stock culture was used for subsequent experiments including sub-culturing in nutrient broth and plated onto agar weekly. Experimental cultures of E. coli were set up overnight in nutrient broth from single colonies on an agar plate. Cells were harvested and counted using a standard curve of known absorbance at 470 nm against viable cell count. Peroxynitrite was generated by the method of Crow et al, Biochem. 34, p. 3544-3552 (1995). […] The concentration of ONOO^− formed was measured using an absorption coefficient of 1670 M^−1 cm^−1 in a spectrophotometer at a wavelength of 303 nm. Solutions of different concentrations for use in (a) below were obtained by dilution of the product solution using PBS. Cells cultured as described above were diluted to suitable working concentrations (10^4-10^5 Cells Ml^−1) in sterile phosphate buffered saline (PBS). ONOO^− at a range of concentrations from […] to 0.01 μm was added as a bolus dose to cells and incubated at room temperature for ten minutes. Aliquots were taken from the cell cultures and plated on to nutrient agar and incubated in a warm room at 37° C. overnight. Viable cells formed colonies on the agar and were counted. The number of colonies formed was related to an untreated control and a graph of the results is shown in FIG. 1, which illustrates the effect of ONOO^− on cell viability.

S. enteritidis = test: Peroxynitrite effect on cell viability (Test 8(a)); type: cell-based; settings: Salmonella enterica
Method: Cells cultured as described above were diluted to suitable working concentrations (10^4-10^5 Cells Ml^−1) in sterile phosphate buffered saline (PBS). ONOO^− at a range of concentrations from […] to 0.01 μm was added as a bolus dose to cells and incubated at room temperature for ten minutes. Aliquots were taken from the cell cultures and plated on to nutrient agar and incubated in a warm room at 37° C. overnight. Viable cells formed colonies on the agar and were counted. The number of colonies formed was related to an untreated control and a graph of the results is shown in FIG. 1, which illustrates the effect of ONOO^− on cell viability.

[6] = test system: contaminants of semi-skimmed bovine milk (postulated Lactobacilli sp.); test: Peroxynitrite addition to semi-skimmed bovine milk, colony forming units (Test 8(b)); type: cell-based; settings: 4° C., four days
Method: Commercially produced bovine milk was purchased in semi-skimmed form. Aliquots were taken on day one of experimentation and plated onto nutrient agar and grown overnight at 37° C. The number of colonies formed following incubation was counted. The remaining milk was divided into three portions after removal of those aliquots. No peroxynitrite was added to the first portion, which was the control. A single bolus dose of 100 μM ONOO^− was added to the second portion on day one, and the third portion was treated by addition of a daily bolus dose of 100 μM ONOO^−. The portions were stored during the four days of the test at a temperature of 4° C. Each day, aliquots were taken from each portion and cultured overnight at 37° C. for viable count determination. […] Although the contaminants were not formally identified, it was postulated that they included at least Lactobacilli sp., that being a cell type often present in milk.

E. coli = test: Peroxynitrite scavenger and XO systems on bacterial growth curves in nutrient broth (Test 8(d)); type: cell-based; settings: 100 μM added at 1 hour; 21% oxygen saturation
Method: E. coli were seeded into nutrient broth at 2.10^7 cell ml^−1 and incubated at 37° C. under atmospheric air conditions (that is, 21% oxygen saturation). Four separate test samples of volume 1 ml were prepared by addition at 1 hour of incubation as follows:
1 Peroxynitrite at concentration 100 μM.
2 Peroxynitrite at 100 μM and quercetin (peroxynitrite scavenger) at 100 μM.
3 Xanthine oxidase (53.2 μg) and xanthine at 100 μM.
4 Xanthine oxidase (53.2 μg) and NADH at 100 μM.
Corresponding controls were also prepared, and the growth curves generated over time determined by monitoring absorbance.

Staphylococcus aureus = test: Incubation of Staphylococcus aureus with SIN-1, growth; type: cell-based; settings: in dependence on the amount added
Method: Cells cultured as described above were diluted to suitable working concentrations (10^4-10^5 Cells Ml^−1) in sterile phosphate buffered saline (PBS). […] Aliquots were taken from the cell cultures and plated on to nutrient agar and incubated in a warm room at 37° C. overnight. Viable cells formed colonies on the agar and were counted. The number of colonies formed was related to an untreated control and a graph of the results is shown in FIG. 1, which illustrates the effect of ONOO^− on cell viability.

superoxide = test: Measurable NO in the XO/hypoxanthine system with superoxide dismutase; type: biochemical; settings: added to the Xo/hypoxanthine system; oxygen 0 to 2%

## c1ccc([I+]c2ccccc2)cc1 [DPI, Diphenyliodonium]
[1]
  inhibition of NO release of 7 days old Cow and Gate formula: not inhibited
[2]
  NO release: 0.00 mV/s
[3]
  NO generation of fresh full fat milk with inhibitor: no detectable NO generation
  inhibition of the increased NO release of milk gone off at 4° C.: not inhibited

## OO [H2O2, hydrogen peroxide]
Micrococcus sp
  IC50: 19.5 µM
Bacillus sp
  IC50: 77.6 µM
Lactobacillus casei 6375; read-out: Half maximal concentration H2O2, Lactobacillus casei, bolus at beginning of logarithmic growth
  IC50: 305 µM
[4]; S. aureus, 50% growth reduction not observed at the concentration ranges used
  growth inhibition: very limited

## O=c1[nH]cnc2nc[nH]c12 [Hypoxanthine, hypoxanthine]
[5]
  total number of colonies formed (CFU ml^−1): reduce the total number of colonies formed
Lactobacillus casei 6375; Lacticaseibacillus casei, 6375, Lactobacillus, at 30 μg XO, read-out: half maximal hypoxanthine dose
  IC50: 104 µM
[4]; Staphylococcus, in the presence of 30 μg XO
  growth rate: reduced the growth rate

## O=c1[nH]c(=O)c2c[nH]nc2[nH]1 [Oxypurinol]
[1]
  inhibition of NO release of 7 days old Cow and Gate formula: not inhibited
[2]
  NO release: 0.00 mV/s
[3]
  NO generation of fresh full fat milk with inhibitor: no detectable NO generation
  inhibition of the increased NO release of milk gone off at 4° C.: not inhibited
Lactobacillus casei 6375; 30 μg XO and 200 μM hypoxanthine, range of concentrations
  effect on XO/hypoxanthine growth inhibition: reduce the effect of XO/hypoxanthine growth inhibition in a dose dependent manner
Lactobacillus casei 6375; highest concentration, alone
  growth rate of Lactobacillus, added alone: no effect

## O=NOO [Peroxynitrite]
Escherichia coli NCTC 86; range of concentrations, ten minutes
  effect on cell viability (viable count, FIG. 1): profound inhibitory effect
Escherichia coli NCTC 86; bolus dose, ten minutes at room temperature in PBS, read-out: IC50 (concentration that reduces viability to 50% of control viable count)
  IC50: 1.4 µM
Escherichia coli NCTC 86; value matches Test 8(a) viability IC50, read-out: Half maximal concentration ONOO -
  IC50: 1.4 µM
S. enteritidis; S. enteritidis, similar conditions, read-out: IC50 (concentration that reduces viability to 50% of control viable count)
  IC50: 2.03 µM
S. enteritidis; Salmonella enteritidis, value matches Test 8(a) viability IC50, read-out: Half maximal concentration ONOO -
  IC50: 2 µM
Lactobacillus casei 6375; Lacticaseibacillus casei, 6375, Lactobacillus casei, bolus at beginning of logarithmic growth, read-out: Half maximal concentration ONOO -
  IC50: 55 µM
[4]; 6751, Staphylococcus aureus, bolus at beginning of logarithmic growth, read-out: Half maximal concentration ONOO -
  IC50: 290 µM
[6]; daily bolus dose of 100 μM, p<=0.01, also below single dose p<=0.05
  colony forming units (CFU) in milk compared to control: reduced the CFU significantly below control
[6]; single bolus dose of 100 μM on day one, p<=0.01
  colony forming units (CFU) in milk compared to control: reduced the CFU significantly
E. coli
  killing (growth curve): strong killing

## N=c1c[n+](N2CCOCC2)[n-]o1 [SIN-1, 3-morpholinosydnonimine]
Staphylococcus aureus
  growth of Staphylococcus aureus: reduced growth

## superoxide dismutase
superoxide
  amount of measurable NO: increase the amount of measurable NO
